Experimental data published in BindingDB's records for PubMed 20126400 (University of Oklahoma, 2010).
pKi: −log10 of the molar value.

Legend:
Experiment in all cases: Ray2010 Assay 74
[1] = biological target: T1, Alpha-2C adrenergic receptor (Homo sapiens, UniProt P18825)
T1 sequence (P18825 whole entry): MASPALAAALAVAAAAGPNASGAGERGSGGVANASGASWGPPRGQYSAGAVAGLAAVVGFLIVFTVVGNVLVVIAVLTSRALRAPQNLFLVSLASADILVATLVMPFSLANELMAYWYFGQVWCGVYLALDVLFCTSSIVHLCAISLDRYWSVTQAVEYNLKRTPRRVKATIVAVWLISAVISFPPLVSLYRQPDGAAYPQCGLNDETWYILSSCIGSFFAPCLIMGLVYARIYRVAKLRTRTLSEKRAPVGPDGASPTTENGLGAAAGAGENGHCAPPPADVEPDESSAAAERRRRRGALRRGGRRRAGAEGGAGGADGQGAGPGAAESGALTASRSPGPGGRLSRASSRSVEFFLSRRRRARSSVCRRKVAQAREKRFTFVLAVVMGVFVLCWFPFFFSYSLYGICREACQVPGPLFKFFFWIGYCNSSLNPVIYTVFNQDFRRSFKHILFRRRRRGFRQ
Excerpt: (§1) Table S2 shows raw Ki data for the current study combined with data collected from the literature for the ten additional compounds.

[2] = biological target: Muscarinic acetylcholine receptor M3 (Homo sapiens, UniProt P20309)
Chain of Muscarinic acetylcholine receptor M3 (P20309 whole entry): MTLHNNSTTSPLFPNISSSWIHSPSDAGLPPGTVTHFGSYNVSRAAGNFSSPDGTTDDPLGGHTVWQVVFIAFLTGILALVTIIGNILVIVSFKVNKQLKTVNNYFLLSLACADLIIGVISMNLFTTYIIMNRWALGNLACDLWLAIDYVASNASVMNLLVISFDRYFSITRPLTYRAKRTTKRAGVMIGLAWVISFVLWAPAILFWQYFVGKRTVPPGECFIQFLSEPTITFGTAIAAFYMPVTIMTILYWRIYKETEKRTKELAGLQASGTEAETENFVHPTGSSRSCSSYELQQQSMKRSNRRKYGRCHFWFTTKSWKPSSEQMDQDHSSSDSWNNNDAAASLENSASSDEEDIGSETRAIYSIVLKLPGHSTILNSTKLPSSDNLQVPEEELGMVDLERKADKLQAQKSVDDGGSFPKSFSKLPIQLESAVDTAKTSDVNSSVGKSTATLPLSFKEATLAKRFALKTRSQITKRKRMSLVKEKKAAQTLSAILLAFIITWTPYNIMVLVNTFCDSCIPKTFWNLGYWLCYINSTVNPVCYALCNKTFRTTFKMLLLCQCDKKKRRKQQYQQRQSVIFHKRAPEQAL
Excerpt: as §1

Vasopressin V1a receptor = Vasopressin V1a receptor (Homo sapiens, UniProt P37288)
Chain of Vasopressin V1a receptor (P37288 whole entry): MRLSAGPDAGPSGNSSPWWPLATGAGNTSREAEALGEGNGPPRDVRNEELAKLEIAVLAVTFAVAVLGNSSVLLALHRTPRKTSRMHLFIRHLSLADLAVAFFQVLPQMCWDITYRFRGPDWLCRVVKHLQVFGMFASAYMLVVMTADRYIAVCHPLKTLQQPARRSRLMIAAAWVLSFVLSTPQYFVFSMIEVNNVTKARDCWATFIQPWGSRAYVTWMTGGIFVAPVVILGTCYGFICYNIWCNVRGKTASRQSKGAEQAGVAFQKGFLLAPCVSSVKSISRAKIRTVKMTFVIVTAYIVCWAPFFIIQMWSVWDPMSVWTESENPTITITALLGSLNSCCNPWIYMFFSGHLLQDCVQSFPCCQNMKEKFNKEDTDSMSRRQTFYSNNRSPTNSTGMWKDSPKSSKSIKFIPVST
Excerpt: as §1

[3] = biological target: T2, Prostaglandin E2 receptor EP3 subtype (Homo sapiens, UniProt P43115)
T2 sequence (P43115 whole entry): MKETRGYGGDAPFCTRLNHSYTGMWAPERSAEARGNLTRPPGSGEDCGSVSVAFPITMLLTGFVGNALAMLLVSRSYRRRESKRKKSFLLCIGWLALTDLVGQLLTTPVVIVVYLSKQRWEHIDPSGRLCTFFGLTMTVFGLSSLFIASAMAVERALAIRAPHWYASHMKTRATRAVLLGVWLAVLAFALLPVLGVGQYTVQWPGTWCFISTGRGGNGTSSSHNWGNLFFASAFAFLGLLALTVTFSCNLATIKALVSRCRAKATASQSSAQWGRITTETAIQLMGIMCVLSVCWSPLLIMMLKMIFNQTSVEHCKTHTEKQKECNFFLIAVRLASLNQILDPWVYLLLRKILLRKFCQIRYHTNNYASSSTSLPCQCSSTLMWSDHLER
Excerpt: as §1

Cannabinoid receptor 2 = Cannabinoid receptor 2 (Homo sapiens, UniProt P34972)
Chain of Cannabinoid receptor 2 (P34972 whole entry): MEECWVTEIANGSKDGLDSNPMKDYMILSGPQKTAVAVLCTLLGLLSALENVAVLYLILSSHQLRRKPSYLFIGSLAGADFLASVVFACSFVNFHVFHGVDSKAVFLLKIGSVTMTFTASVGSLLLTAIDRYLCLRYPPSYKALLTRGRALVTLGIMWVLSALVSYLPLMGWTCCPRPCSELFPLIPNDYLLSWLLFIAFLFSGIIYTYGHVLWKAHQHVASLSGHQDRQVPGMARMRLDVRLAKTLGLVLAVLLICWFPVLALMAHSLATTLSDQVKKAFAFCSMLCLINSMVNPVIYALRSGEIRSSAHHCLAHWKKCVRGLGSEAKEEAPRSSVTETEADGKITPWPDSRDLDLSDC
Excerpt: as §1

[4] = biological target: T3, 5-hydroxytryptamine receptor 3A (Homo sapiens, UniProt P46098)
T3 sequence (P46098 whole entry): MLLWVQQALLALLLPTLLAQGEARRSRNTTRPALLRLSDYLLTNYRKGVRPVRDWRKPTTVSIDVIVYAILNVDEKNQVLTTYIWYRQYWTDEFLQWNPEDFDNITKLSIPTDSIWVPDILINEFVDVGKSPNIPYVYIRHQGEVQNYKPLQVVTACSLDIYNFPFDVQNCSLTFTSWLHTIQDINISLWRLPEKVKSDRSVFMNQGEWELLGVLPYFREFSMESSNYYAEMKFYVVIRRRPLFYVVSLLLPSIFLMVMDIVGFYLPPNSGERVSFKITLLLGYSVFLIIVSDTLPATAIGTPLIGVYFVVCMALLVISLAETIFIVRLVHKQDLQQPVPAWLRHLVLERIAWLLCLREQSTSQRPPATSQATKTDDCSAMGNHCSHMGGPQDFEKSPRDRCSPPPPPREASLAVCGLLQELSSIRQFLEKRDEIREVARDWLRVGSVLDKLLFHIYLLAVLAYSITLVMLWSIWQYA
Excerpt: as §1

[5] = biological target: 5-hydroxytryptamine receptor 7 (Homo sapiens, UniProt P34969)
Chain of 5-hydroxytryptamine receptor 7 (P34969 whole entry): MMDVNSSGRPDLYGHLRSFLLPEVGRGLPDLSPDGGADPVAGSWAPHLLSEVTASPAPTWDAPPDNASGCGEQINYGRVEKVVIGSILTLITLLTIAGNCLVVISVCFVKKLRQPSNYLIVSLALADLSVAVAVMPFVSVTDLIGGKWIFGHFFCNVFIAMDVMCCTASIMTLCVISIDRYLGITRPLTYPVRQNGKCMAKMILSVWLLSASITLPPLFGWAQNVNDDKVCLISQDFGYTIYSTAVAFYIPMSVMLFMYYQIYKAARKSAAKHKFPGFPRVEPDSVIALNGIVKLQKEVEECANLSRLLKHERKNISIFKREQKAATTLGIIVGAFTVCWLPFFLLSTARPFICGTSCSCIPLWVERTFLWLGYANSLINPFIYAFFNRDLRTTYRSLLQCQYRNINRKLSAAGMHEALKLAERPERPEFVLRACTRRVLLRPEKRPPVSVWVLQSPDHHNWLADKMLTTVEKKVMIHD
Excerpt: as §1

Nischarin = Nischarin (Homo sapiens, UniProt Q9Y2I1)
Chain of Nischarin (Q9Y2I1 whole entry): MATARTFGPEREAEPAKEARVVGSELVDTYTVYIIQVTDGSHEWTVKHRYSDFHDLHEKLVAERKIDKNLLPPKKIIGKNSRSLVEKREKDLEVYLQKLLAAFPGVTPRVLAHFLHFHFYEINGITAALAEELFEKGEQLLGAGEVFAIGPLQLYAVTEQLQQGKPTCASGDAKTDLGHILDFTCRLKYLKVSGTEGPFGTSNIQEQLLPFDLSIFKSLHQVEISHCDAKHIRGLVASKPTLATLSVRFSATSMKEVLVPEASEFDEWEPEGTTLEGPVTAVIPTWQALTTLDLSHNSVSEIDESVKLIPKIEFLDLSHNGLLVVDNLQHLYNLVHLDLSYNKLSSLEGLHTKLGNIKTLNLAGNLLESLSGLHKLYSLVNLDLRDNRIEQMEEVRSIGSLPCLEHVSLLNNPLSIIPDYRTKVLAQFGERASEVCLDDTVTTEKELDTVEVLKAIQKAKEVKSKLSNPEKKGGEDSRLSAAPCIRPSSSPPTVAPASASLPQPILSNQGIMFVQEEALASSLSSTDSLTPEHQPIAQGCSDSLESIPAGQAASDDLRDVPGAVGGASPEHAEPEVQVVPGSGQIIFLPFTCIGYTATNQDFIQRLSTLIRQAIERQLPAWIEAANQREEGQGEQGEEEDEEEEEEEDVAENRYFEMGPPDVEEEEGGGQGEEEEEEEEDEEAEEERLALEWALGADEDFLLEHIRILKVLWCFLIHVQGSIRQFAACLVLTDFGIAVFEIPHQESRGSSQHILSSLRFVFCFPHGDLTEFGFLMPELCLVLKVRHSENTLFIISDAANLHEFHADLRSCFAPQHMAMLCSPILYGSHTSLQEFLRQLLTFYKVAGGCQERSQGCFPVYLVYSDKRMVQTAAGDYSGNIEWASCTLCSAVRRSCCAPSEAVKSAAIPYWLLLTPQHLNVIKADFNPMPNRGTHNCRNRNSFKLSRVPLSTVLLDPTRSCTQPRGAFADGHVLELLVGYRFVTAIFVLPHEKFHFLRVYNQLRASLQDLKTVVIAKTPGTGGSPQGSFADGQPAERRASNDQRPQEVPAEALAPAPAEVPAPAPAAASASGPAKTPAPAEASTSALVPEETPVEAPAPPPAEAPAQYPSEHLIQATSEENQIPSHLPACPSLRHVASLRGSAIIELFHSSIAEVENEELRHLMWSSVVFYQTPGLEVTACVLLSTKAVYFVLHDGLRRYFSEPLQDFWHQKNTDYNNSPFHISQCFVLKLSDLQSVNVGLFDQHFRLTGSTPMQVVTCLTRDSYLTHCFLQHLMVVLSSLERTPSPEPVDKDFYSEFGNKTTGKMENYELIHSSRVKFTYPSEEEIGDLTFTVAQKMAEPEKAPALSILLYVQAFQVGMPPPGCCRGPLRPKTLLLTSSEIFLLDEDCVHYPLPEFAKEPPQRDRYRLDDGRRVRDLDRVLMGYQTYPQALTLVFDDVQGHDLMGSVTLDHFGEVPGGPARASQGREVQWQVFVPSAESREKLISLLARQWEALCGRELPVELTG
Excerpt: as §1

[6] = biological target: Beta-2 adrenergic receptor (Homo sapiens, UniProt P07550)
Chain of Beta-2 adrenergic receptor (P07550 whole entry): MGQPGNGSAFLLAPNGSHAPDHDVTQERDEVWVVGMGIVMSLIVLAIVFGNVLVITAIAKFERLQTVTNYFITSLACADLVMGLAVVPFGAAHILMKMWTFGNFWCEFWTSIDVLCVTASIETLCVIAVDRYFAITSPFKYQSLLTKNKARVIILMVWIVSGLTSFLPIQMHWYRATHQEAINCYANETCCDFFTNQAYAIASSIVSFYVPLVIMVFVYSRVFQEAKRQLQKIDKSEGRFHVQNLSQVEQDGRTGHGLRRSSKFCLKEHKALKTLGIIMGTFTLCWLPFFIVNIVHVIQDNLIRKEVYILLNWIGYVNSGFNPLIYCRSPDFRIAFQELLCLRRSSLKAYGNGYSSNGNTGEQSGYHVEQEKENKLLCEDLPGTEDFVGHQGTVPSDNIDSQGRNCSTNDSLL
Excerpt: as §1

[7] = biological target: Sigma non-opioid intracellular receptor 1 (Homo sapiens, UniProt Q99720)
Chain of Sigma non-opioid intracellular receptor 1 (Q99720 whole entry): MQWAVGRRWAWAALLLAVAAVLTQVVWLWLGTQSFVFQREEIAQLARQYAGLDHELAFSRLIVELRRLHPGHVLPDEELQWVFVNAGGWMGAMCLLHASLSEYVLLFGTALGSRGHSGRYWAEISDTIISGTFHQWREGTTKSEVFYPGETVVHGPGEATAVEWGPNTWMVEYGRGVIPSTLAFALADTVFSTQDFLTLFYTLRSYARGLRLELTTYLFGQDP
Excerpt: as §1

Vasopressin V1b receptor = biological target: T4, Vasopressin V1b receptor (Homo sapiens, UniProt P47901)
T4 sequence (P47901 whole entry): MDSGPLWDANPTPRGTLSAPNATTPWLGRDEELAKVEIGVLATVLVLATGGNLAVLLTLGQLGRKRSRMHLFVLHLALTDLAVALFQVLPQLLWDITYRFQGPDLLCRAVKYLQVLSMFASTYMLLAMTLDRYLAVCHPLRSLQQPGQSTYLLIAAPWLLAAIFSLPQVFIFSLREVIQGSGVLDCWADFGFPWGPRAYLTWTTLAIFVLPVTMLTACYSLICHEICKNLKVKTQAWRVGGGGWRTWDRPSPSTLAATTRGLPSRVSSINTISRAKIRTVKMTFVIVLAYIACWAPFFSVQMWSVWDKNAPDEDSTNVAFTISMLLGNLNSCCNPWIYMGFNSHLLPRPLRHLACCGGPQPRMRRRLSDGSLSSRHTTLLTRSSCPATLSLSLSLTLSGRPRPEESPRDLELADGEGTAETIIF
Excerpt: as §1

SMILES | pKi [1] | pKi [2] | pKi (Vasopressin V1a receptor) | pKi [3] | pKi (Cannabinoid receptor 2) | pKi [4] | pKi [5] | pKi (Nischarin) | pKi [6] | pKi [7] | pKi (Vasopressin V1b receptor)
CCOc1cc(OC)c(CC(C)N)cc1OC (stereo not given) | < 5.00 | < 5.00 | < 5.00 | < 5.00 | < 5.00 | < 5.00 | 5.15 | < 5.00 | < 5.00 | 5.29 | < 5.00
COc1cc(CCN)c(OC)cc1Br | 6.99 | 6.09 | < 5.00 | < 5.00 | < 5.00 | < 5.00 | 6.68 | 5.67 |  | < 5.00 | < 5.00
CCSc1cc(OC)c(CC(N)CC)cc1OC (stereo not given) [1-(4-Ethylsulfanyl-2,5-dimethoxy-benzyl)-propylamine] | < 5.00 | < 5.00 | < 5.00 | < 5.00 | < 5.00 | < 5.00 | 5.42 | 6.02 |  | 6.29 | < 5.00
CCc1cc(OC)c(CCN)cc1OC [2-(2,5-dimethoxy-4-ethylphenyl)ethylamine] | 7.04 | 5.59 | < 5.00 | < 5.00 | < 5.00 | < 5.00 | 6.37 | < 5.00 |  |  | < 5.00
COc1cc(CC(C)N)c(OC)cc1Br (stereo not drawn) [2-(4-Bromo-2,5-dimethoxy-phenyl)-1-methyl-ethylamine((-)-DOB)] | 6.23 | 5.94 | < 5.00 | < 5.00 | < 5.00 | < 5.00 | 6.30 |  |  | 5.66 | < 5.00
CCSc1cc(OC)c(CC(C)N)cc1OC (stereo not given) [2-(4-Ethylsulfanyl-2,5-dimethoxy-phenyl)-1-methyl-ethylamine] | 5.86 | 5.72 | < 5.00 | < 5.00 | < 5.00 | < 5.00 | 5.88 | 6.50 |  | 6.62 | < 5.00
CCSc1cc(OC)c(CCN)cc1OC [2C-T-2] | 6.78 | 6.16 | < 5.00 | < 5.00 | < 5.00 | < 5.00 |  | 5.68 |  | 5.41 | < 5.00
COc1cc(CCN)cc(OC)c1OC [3,4,5-trimethoxyphenylethylamine] | 6.13 | < 5.00 | < 5.00 | < 5.00 | < 5.00 | < 5.00 | < 5.00 | 5.57 | < 5.00 | < 5.00 | < 5.00
COc1ccc2[nH]cc(CCN(C(C)C)C(C)C)c2c1 [5-meo-dipt] | 5.54 | < 5.00 | < 5.00 | < 5.00 | < 5.00 | < 5.00 | 5.91 | 6.12 | < 5.00 | 5.02 | < 5.00
COc1ccc2[nH]cc(CCN(C)C(C)C)c2c1 [5-meo-mipt] | 6.20 | < 5.00 | < 5.00 | < 5.00 | < 5.00 | < 5.00 | 7.70 | 6.06 | < 5.00 | < 5.00 | < 5.00
CN(C)CCc1c[nH]c2cc(F)ccc12 [6-f-dmt] | 6.83 | < 5.00 | < 5.00 | < 5.00 | < 5.00 | < 5.00 | 7.39 | 6.05 | < 5.00 | 5.16 | < 5.00
CC(C)N(CCc1c[nH]c2ccccc12)C(C)C [dipt] | 5.60 | < 5.00 | < 5.00 | < 5.00 | < 5.00 | < 5.00 | 5.47 | 6.45 | < 5.00 | 5.75 | < 5.00
CCCN(CCC)CCc1c[nH]c2ccccc12 [dpt] | 6.29 | < 5.00 | < 5.00 | < 5.00 | < 5.00 | < 5.00 | 6.55 |  | < 5.00 | 6.40 | < 5.00
CNC(C)Cc1ccc2c(c1)OCO2 (stereo not given) [mdma] | 5.87 |  |  | < 5.00 |  | < 5.00 | < 5.00 | 6.66 | < 5.00 |  | < 5.00
